This experiment relates to DSS-induced mouse colitis. Description: Effect on improvement of pathological conditions in DSS-induced IBD model. Type of experiment: in vivo, mice (C57BL/6N Jcl). The arrangement: DAI Score (MEANS ± SD): scale not given here. Conditions: 2% DSS day 1 to day 7, drug 30 mg/kg/day day 0 to day 7; for Abnormal stool occurrence: mice with abnormal stool (loose stool, diarrhea, blood in stool) counted on day 8, n=6 per group, control 6, non-treatment 0; for DAI Score (MEANS ± SD): DAI scores per Table 1 (body weight loss, stool hardness, fecal occult blood), day 8, control 5.3 ± 2.1. On the procedure: This test was performed in accordance with the method described in PEDIATRIC RESEARCH, Vol. 53, No. 1, 143-147, 2003. […] Dextran sulfate sodium (hereinafter abbreviated as “DSS,” product of Wako Pure Chemical Industries, Ltd.) was dissolved in purified water to 2% w/v, and the solution was fed ad libitum to the mice for seven days through a liquid-feed bottle (day 1 to day 7), to thereby establish ulcerative colitis models. The test groups included a drug-non-administration group (control), and a uracil derivative (1)-administration (30 mg/kg/day) group. A non-treatment group was provided through feeding purified water instead of 2% aqueous DSS solution. The drug was administered for eight days from one day before start of feeding 2% aqueous DSS solution (i.e., from day 0 to day 7). The improvement effect was determined on the day following the final drug administration day (on day 8) by counting occurrence of abnormal stools (loose stool, diarrhea, and visual observation of presence of blood in stool).

`CNCc1[nH]c(=O)[nH]c(=O)c1Cl` [Compound 1, 5-chloro-6-(methylaminomethyl)uracil]: the Abnormal stool occurrence came to 4.

For `O=c1[nH]c(CN2CCCC2)c(Cl)c(=O)[nH]1` [Compound 2, 5-chloro-6-(1-pyrrolidinylmethyl)uracil], the Abnormal stool occurrence was 3.

As to `CN(CCO)Cc1[nH]c(=O)[nH]c(=O)c1Cl` [Compound 3, 5-chloro-6-((N-(2-hydroxyethyl)-N-methylamino)methyl)uracil], the Abnormal stool occurrence turned out to be 3. As to `Cl.O=c1[nH]c(CSc2nnc[nH]2)c(Cl)c(=O)[nH]1` [Compound 4, 5-chloro-6-(1,2,4-triazole-3-thiomethyl)uracil hydrochloride salt], the “DAI Score (MEANS ± SD)” value amounted to 0.22 ± 0.27 and the Abnormal stool occurrence is 0. With `N=C1NCCN1Cc1[nH]c(=O)[nH]c(=O)c1Cl` [Compound 5, 5-chloro-6-(1-(2-iminoimidazolidinyl)methyl)uracil], the “DAI Score (MEANS ± SD)” value is listed as 0.28 ± 0.25 and the Abnormal stool occurrence was determined as 0. The matching figures for `O=c1[nH]c(CN2CCCC2)c(Br)c(=O)[nH]1` [Compound 6, 5-bromo-6-(1-pyrrolidinylmethyl)uracil]: 0.22 ± 0.27 and 2.

The values are drawn from patent US8188105B2, “Therapeutic agent for inflammatory bowel disease comprising uracil derivative as active ingredient” (Taiho Pharmaceutical Co., Ltd., priority 2007, dated 2012).
